Test results reported in the supplement of paper PMC10307832.

Legend:
Assay in all cases: relative viability (nuclei count vs DMSO), 5 days (fraction); higher = more cells survive
RO-3306 + Olaparib = compound: C1=CC2=C(C=CC(=C2)C=C3C(=O)NC(=NCC4=CC=CS4)S3)N=C1 [RO-3306] + O=C(c1cc(Cc2n[nH]c(=O)c3ccccc23)ccc1F)N1CCN(C(=O)C2CC2)CC1 [Olaparib] (partner 8 µM)
Summary of the method: (§1)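 The day after seeding in 1536-well plates, lung cancer cell lines were treated by pin tool with a single drug, or with a fixed anchor-drug dose together with five library-drug doses (not always all listed) in √10 steps. After 5 days, a combined fix-and-stain solution (final 0.05% Triton X-100, 1% formaldehyde, 1 ug/ml Hoechst) was added. Nuclei counted on 4× images gave relative viability as treated counts over vehicle counts, reported as the median of duplicate plates.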

[1] = compound: O=S(=O)(c1ccccc1)N(CC(F)(F)F)c1ccc(C(O)(C(F)(F)F)C(F)(F)F)cc1 + C[C@@H](Oc1cc(-c2cnn(C3CCNCC3)c2)cnc1N)c1c(Cl)ccc(F)c1Cl [Crizotinib] (partner 1 µM)
Summary of the method: as §1

[2] = compound: O=S(=O)(c1ccccc1)N(CC(F)(F)F)c1ccc(C(O)(C(F)(F)F)C(F)(F)F)cc1 + C[C@]1(O)C[C@@H](c2nc(-c3ccc4ccc(-c5ccccc5)nc4c3)c3c(N)nccn32)C1 [Linsitinib] (partner 1 µM)
Summary of the method: as §1

[3] = compound: O=S(=O)(c1ccccc1)N(CC(F)(F)F)c1ccc(C(O)(C(F)(F)F)C(F)(F)F)cc1 + O=C(CCCCCCC(=O)Nc1ccccc1)NO [Vorinostat] (partner 1 µM)
Summary of the method: as §1

[4] = compound: O=S(=O)(c1ccccc1)N(CC(F)(F)F)c1ccc(C(O)(C(F)(F)F)C(F)(F)F)cc1 + COc1cccc2cc(-c3nc([C@H]4CC[C@H](C(=O)O)CC4)n4ncnc(N)c34)[nH]c12 [OSI-027] (partner 0.5 µM)
Summary of the method: as §1

[5] = compound: O=S(=O)(c1ccccc1)N(CC(F)(F)F)c1ccc(C(O)(C(F)(F)F)C(F)(F)F)cc1 + Nc1nc2[nH]cc(CCc3ccc(C(=O)N[C@@H](CCC(=O)O)C(=O)O)cc3)c2c(=O)[nH]1 [Pemetrexed] (partner 0.2 µM)
Summary of the method: as §1

Row | Cell Line | relative viability (RO-3306 + Olaparib; first compound 0.01 µM) | relative viability (RO-3306 + Olaparib; first compound 0.03162 µM) | relative viability (RO-3306 + Olaparib; first compound 0.1 µM) | relative viability (RO-3306 + Olaparib; first compound 0.3162 µM) | relative viability (RO-3306 + Olaparib; first compound 1 µM) | relative viability ([1]; first compound 0.8 µM) | relative viability ([1]; first compound 2.53 µM) | relative viability ([1]; first compound 8 µM) | relative viability ([2]; first compound 0.8 µM) | relative viability ([2]; first compound 2.53 µM) | relative viability ([2]; first compound 8 µM) | relative viability ([3]; first compound 2.53 µM) | relative viability ([3]; first compound 8 µM) | relative viability ([4]; first compound 0.8 µM) | relative viability ([4]; first compound 2.53 µM) | relative viability ([4]; first compound 8 µM) | relative viability ([3]; first compound 0.8 µM) | relative viability ([5]; first compound 0.8 µM) | relative viability ([5]; first compound 2.53 µM) | relative viability ([5]; first compound 8 µM)
1 | A549 | 0.308 | 0.295 | 0.297 | 0.367 | 0.303 | 0.884 | 0.74 | 0.703 | 0.697 | 0.585 | 0.603 |  |  |  |  |  |  |  |  | 
2 | ABC-1 | 0.785 | 1.17 | 0.833 | 0.61 | 0.771 | 1.19 | 1.07 | 1.01 | 0.85 | 0.581 | 0.485 | 0.882 | 0.912 | 0.539 | 0.426 | 0.549 |  |  |  | 
3 | Calu-6 | 0.568 | 0.576 | 0.599 | 0.611 | 0.604 | 0.7 | 0.668 | 0.649 | 0.908 | 0.826 | 0.926 |  |  |  |  |  |  |  |  | 
4 | ChaGo-K-1 | 0.443 | 0.402 | 0.41 | 0.362 | 0.223 | 1.31 | 1.07 | 0.613 |  |  |  | 0.732 | 0.655 | 0.687 | 0.522 | 0.6 | 0.885 | 0.263 | 0.264 | 0.272
5 | EBC-1 | 0.838 | 0.559 | 0.632 | 0.839 | 0.751 | 0.234 | 0.29 | 0.293 | 0.911 | 0.47 | 0.695 |  |  |  |  |  |  |  |  | 
6 | IA-LM | 0.975 |  | 0.785 | 0.846 | 0.865 | 0.863 | 0.652 | 0.906 | 0.656 | 0.34 | 0.397 | 0.757 | 0.553 |  |  |  | 0.917 |  |  | 
7 | NCI-H522 | 0.619 | 0.561 | 0.634 | 0.546 | 0.608 |  |  |  |  |  |  | 0.973 | 0.959 | 0.615 | 0.754 | 0.903 | 0.833 | 1.03 | 1.11 | 0.877
8 | NCI-H727 | 0.666 | 0.722 | 0.844 | 0.724 | 0.621 | 0.832 | 0.844 | 0.646 | 0.279 | 0.376 | 0.212 | 0.853 | 1.03 | 0.669 | 0.474 | 0.631 | 1.18 |  |  | 
9 | NCI-H1299 | 0.993 | 0.99 | 0.988 | 0.997 | 0.97 | 0.958 | 0.942 | 0.906 | 1.11 | 0.954 | 0.782 |  |  |  |  |  |  |  |  | 
10 | NCI-H1395 | 0.503 | 0.488 | 0.491 | 0.425 | 0.408 |  |  |  | 1.23 | 1.05 | 1.21 | 0.594 | 0.759 | 0.512 | 0.57 | 0.579 | 0.532 | 0.887 | 0.816 | 0.924
11 | NCI-H1563 |  |  |  |  |  | 0.873 | 0.742 | 0.733 | 1.2 | 1.17 | 1.06 |  |  | 0.792 | 0.734 | 0.854 |  | 0.737 | 0.749 | 0.75
12 | NCI-H1623 |  |  |  |  |  |  |  |  |  |  |  |  |  | 0.469 | 0.389 | 0.484 |  |  |  | 
13 | NCI-H1648 | 0.679 |  | 0.927 | 0.767 | 0.885 |  |  |  |  |  |  | 0.387 | 0.312 | 0.248 | 0.254 | 0.185 | 0.41 | 0.718 | 0.574 | 0.535
14 | NCI-H1650 | 0.933 | 0.718 | 0.809 | 0.784 | 0.656 | 0.972 | 0.972 | 1.04 |  |  |  | 0.496 | 0.58 | 0.58 | 0.542 | 0.603 | 0.511 | 0.332 | 0.355 | 0.397
15 | NCI-H1703 | 0.387 | 0.38 | 0.387 | 0.389 | 0.429 | 0.676 | 0.701 | 0.588 | 0.675 | 0.667 | 0.805 |  |  |  |  |  |  |  |  | 
16 | NCI-H1792 | 0.544 |  | 0.484 | 0.51 | 0.436 | 0.843 | 0.75 | 0.818 | 0.396 | 0.392 | 0.22 |  |  | 0.688 | 0.717 | 0.458 |  | 0.892 | 0.702 | 0.717
17 | NCI-H1793 | 0.686 |  | 0.789 | 0.893 | 0.954 |  |  |  | 0.836 | 0.641 | 0.66 | 0.539 | 0.521 | 0.292 | 0.188 | 0.207 | 0.574 | 0.792 | 0.587 | 0.806
18 | NCI-H2170 | 0.658 | 0.589 | 0.631 | 0.546 | 0.509 | 1.25 | 1.19 | 1.21 |  |  |  | 0.695 | 0.761 | 0.653 | 0.663 | 0.685 | 0.863 | 0.256 | 0.274 | 0.28
19 | NCI-H2342 | 0.574 | 0.499 | 0.428 | 0.437 | 0.379 |  |  |  |  |  |  | 0.841 | 0.741 | 0.646 | 0.626 | 0.58 | 0.8 | 0.894 | 0.841 | 0.956
20 | SW 900 | 0.96 | 0.809 | 0.72 | 0.789 | 0.807 |  |  |  |  |  |  | 0.498 | 0.699 | 0.52 | 0.519 | 0.591 | 0.498 | 0.581 | 0.478 | 0.538
